Experimental data from US6689803B2, “Compositions and methods for treating surgical adhesions” (Angiotech Pharmaceuticals, Inc., priority 1996, dated 2004).
Read-outs that look alike come from different tables or passages of the source.

Experiments:
[1] = tested on: collagen-induced arthritis; experiment: CIA rat model, intraperitoneal micellar paclitaxel; type: in vivo
Method: As a comparison with standard therapy, a third group received methotrexate at 0.3 mg/kg i.p. (human equivalent dose) on days 0, 5 and 10 post-arthritis onset. […] The control (group 5) and experimental animals were evaluated for disease severity both clinically and radiographically by individuals blinded to treatment groups.
The severity of inflammation for each limb was evaluated daily and scored based on standardized levels of swelling and periarticular erythema (0 being normal and 4 severe). Animals were evaluated radiographically on day 28 of the experiment. […] Histological assessment of the joints was completed at the conclusion of the experiment.

collagenase (MMP-1) mRNA = experiment: IL-1 induced collagenase mRNA expression in chondrocytes (Northern blot); type: cell-based, calf; details: pre-incubation 6 hours, IL-1 20 ng/ml 18 hours
Method: Total RNA was isolated, and the MMP-1 mRNA levels were determined by Northern blot analysis. The blots were subsequently stripped and reprobed with ^32P-radiolabeled rat GAPDH cDNA, which was used as a housekeeping gene. The results shown are representative of four independent experiments. Quantitation of collagenase-1 and stromelysin-expression mRNA levels. The MMP-1 and MMP-3 expression levels were normalized with GAPDH.
Primary chondrocyte cultures were freshly isolated from calf cartilage. The cells were plated at 2.5×10^6 per ml in 100×20 mm culture dishes and incubated in Ham's F12 medium containing 5% FBS overnight at 37° C. […] IL-1 (20 ng/ml) was then added to each plate and the plates incubated for an additional 18 hours. Total RNA was isolated by the acidified guanidine isothiocyanate method and subjected to electrophoresis on a denatured gel. Denatured RNA samples (15 μg) were analyzed by gel electrophoresis in a 1% denatured gel, transferred to a nylon membrane and hydridized with the ^32P-labeled collagenase cDNA probe. ^32P-labeled glyceraldehyde phosphate […] (GAPDH) cDNA as an internal standard to ensure roughly equal loading. The exposed films were scanned and quantitatively analyzed with ImageQuant.

aggrecan mRNA = experiment: Expression of proteoglycan (aggrecan) in chondrocytes; type: cell-based, calf; details: all concentrations evaluated (10^−7 M to 10^−4 M)
Method: Primary chondrocyte cultures were freshly isolated from calf cartilage. The cells were plated at 2.5×10^6 per ml in 100×20 mm culture dishes and incubated in Ham's F12 medium containing 5% FBS overnight at 37° C. The cells were starved in serum-free medium overnight and then treated with anti-microtubule agents at various concentrations (10^−7 M, 10^−6 M, 10^−5 M and 10^−4 M) for 6 hours. […] Total RNA was isolated by the acidified guanidine isothiocyanate method and subjected to electrophoresis on a denatured gel. […] The exposed films were scanned and quantitatively analyzed with ImageQuant.

neutrophils [2] = experiment: Neutrophil chemiluminescence assay (opsonized CPPD crystals or zymosan); type: cell-based, human
Method: (§1) All experiments that studied neutrophil responses to crystals or zymosan in the presence of paclitaxel were performed using plasma opsonized CPPD or zymosan. Opsonization of crystals or zymosan was done with 50% heparinized plasma at a concentration of 75 mg of CPPD or 12 mg of zymosan per ml of 50% plasma Crystals or zymosan were incubated with plasma for 30 minutes at 37° C. and then washed in excess HBSS.
(§2) Neutrophil viability and purity was always greater than 90%.
A stock solution of LY290181 at 100 μM in HBSS was freshly prepared.
All chemiluminescence studies were performed at a cell concentration of 5,000,000 cells/ml in HBSS with CPPD (50 mg/ml). In all experiments 0.5 ml of cells was added to 25 mg of CPPD or 0.5 mg of zymosan in 1.5 ml capped Eppendorf tubes. 10 μl of luminol dissolved in 25% DMSO in HBSS was added to a final concentration of 1 μM and the samples were mixed to initiate neutrophil activation by the crystals or zymosan. Chemiluminescence was monitored using an LKB Luminometer (Model 1250) at 37° C. for 20 minutes with shaking immediately prior to measurements to resuspend the crystals or zymosan. Control tubes contained cells, drug and luminol (crystals absent).

[3] = tested on: chick chorioallantoic membrane (CAM) vasculature
synoviocytes = experiment: Proliferation assay (MTT); type: cell-based; details: 24-hour exposure
Method: On day one, 5-10×10^4 synoviocytes were plated per well (96-well plate). Column #1 was kept free of cells (blank). On day 2, the plate was flicked to discard the medium and 200 μl of medium containing various concentrations of drug was added. […] There was no drug added to columns #1 and #2 (blank and untreated control, respectively). The medium containing the drug was discarded and 200 μl of fresh complete medium was added. The cells were then left to grow for an additional 3 to 4 days. On day five, 20 μl of dimethylthiazol diphenyltetrazolium bromide salt (MTT) (5 mg/ml PBS) was added and allowed to incubate for 4 hours at 37° C. The medium was decanted and 200 μl of DMSO was added.
The data were expressed as the % of survival which was obtained by dividing the number of cells remaining after treatment by the number of cells in the untreated control column #2 (the number of cells was obtained from a standard done prior to the assay).

neutrophils [4] = experiment: Superoxide anion generation by neutrophils; type: cell-based, human; details: 17 μM; CPPD crystals
Method: as §1, §2
Superoxide anion concentrations were measured using the superoxide dismutase inhibitable reduction of cytochrome C assay. Briefly, 25 mg of crystals or 0.5 mg of zymosan was placed in a 1.5 ml capped Eppendorf tube and warmed to 37° C. 0.5 ml of cells at 37° C. were added together with ferricytochrome C (final concentration 1.2 mg/ml) and the cells were activated by shaking the capped tubes. At appropriate times tubes were centrifuged at 10,000 g for 10 seconds and the supernatant collected for assay be measuring the absorbance of 550 nm. Control tubes were set up under the same conditions with the inclusion of superoxide dismutase at 600 units per ml.

neutrophils [5] = experiment: Neutrophil degranulation assay (myeloperoxidase, lysozyme release); type: cell-based, human; details: 17 μM; CPPD crystals
Method: as §2
One and a half milliliter Eppendorf tubes containing either 25 mg of CPPD or 1 mg of zymosan were preheated to 37° C. 0.5 ml of cells at 37° C. were added followed by vigorous shaking to initiate the reactions. At appropriate times, tubes were centrifuged at 10,000 g for 10 seconds and 0.4 ml of supernatant was stored at −20° C. for later assay.
Lysozyme was measured by the decrease in absorbance at 450 nm of a Micrococcus lysodeikticus suspension. Briefly, Micrococcus lysodeikticus was suspended at 0.1 mg/ml in 65 mM potassium phosphate buffer, pH 6.2 and the absorbance at 450 nm was adjusted to 0.7 units by dilution. The crystal (or zymosan) and cell supernatant (100 μl) was added to 2.5 ml of the Micrococcus suspension and the decrease in absorbance was monitored. Lysozyme standards (chicken egg white) in the 0 to 2000 units/ml range were prepared and a calibration graph of lysozyme concentration against the rate of decrease in the absorbance at 450 nm was obtained.
Myeloperoxidase (MPO) activity was measured by the increase in absorbance at 450 nm that accompanies the oxidation of dianisidine. 7.8 mg of dianisidine was dissolved in 100 ml of 0.1 M citrate buffer, pH 5.5 at […] by sonication. To a 1 ml cuvette, 0.89 ml of the dianisidine solution was added, followed by 50 μl of 1% Triton x 100, 10 μl of a 0.05% hydrogen peroxide in water solution and 50 μl of crystal-cell supernatant. MPO activity was determined from the change in absorbance (450 nm) per minute, Delta Å 450, using the following equation: […]

## CN(Cc1cnc2nc(N)nc(N)c2n1)c1ccc(C(=O)N[C@@H](CCC(=O)O)C(=O)O)cc1 [methotrexate]
[1]; 0.3 mg/kg
  Percentage of Animals with Erosions: 76%
  Radiographic Score: 4.25 ± 0.64
[1]; 0.3 mg/kg i.p.
  Antibody to Collagenase II: 0.182 ± 0.0034
  Arthritic Index on Day 10: 5.4 ± 0.6
  Maximum Mean Arthritis Score: 5.7 ± 0.6

## CCOC(=O)CN [glycine ethyl ester]
Collagenase (MMP-1) mRNA
  prevented IL-1-induced collagenase expression at concentrations as low as: 100 nM
Aggrecan mRNA
  expression of aggrecan: did not affect the expression of aggrecan
Neutrophils [2]; 0.5 to 20 mM
  inhibition of plasma opsonized zymosan-induced neutrophil chemiluminescence: strong inhibition

## protamine sulphate
[3]; methylcellulose (10 ul), 100 ul ^
  Inhibition/n: 1/10

## [2H]O[2H] [deuterium oxide]
Collagenase (MMP-1) mRNA
  prevented IL-1-induced collagenase expression at concentrations as low as: 100 nM
Aggrecan mRNA
  expression of aggrecan: did not affect the expression of aggrecan

## herbimysin
[3]; PCL paste (3 mg), 2%
  Inhibition/n: 3/4
[3]; in vivo
  Inhibition/n: 1/1

## Cc1occc(=O)c1[O-].Cc1occc(=O)c1[O-].[O]=[V+2] [BMOV]
[3]; PCL paste (3 mg), 10%
  Inhibition/n: too toxic
[3]; PCL paste (3 mg), 25%
  Inhibition/n: too toxic
[3]; PCL paste (3 mg), 35%
  Inhibition/n: too toxic

## aluminum fluoride
Collagenase (MMP-1) mRNA
  prevented IL-1-induced collagenase expression at concentrations as low as: 100 nM
Aggrecan mRNA
  expression of aggrecan: did not affect the expression of aggrecan
synoviocytes
  IC50: ~32000 nM
Neutrophils [2]; 5 to 100 mM
  inhibition of plasma opsonized zymosan-induced neutrophil chemiluminescence: strong inhibition

## CC[C@]1(O)C[C@H]2CN(CCc3c([nH]c4ccccc34)[C@@](C(=O)OC)(c3cc4c(cc3OC)N(C=O)[C@H]3[C@@](O)(C(=O)OC)[C@H](OC(C)=O)[C@]5(CC)C=CCN6CC[C@]43[C@@H]65)C2)C1 [vincristine]
[3]; PCL paste (3 mg), 1%
  Inhibition/n: too toxic
[3]; PCL paste (3 mg), 2%
  Inhibition/n: too toxic
[3]; PCL paste, concentrations exceeding 2%
  toxicity to the embryo: unexpected embryonic death occurred
[3]; methylcellulose (10 ul), 1 ug
  Inhibition/n: too toxic
[3]; methylcellulose (10 ul), 9 ug
  Inhibition/n: too toxic

## [O]=[V]([O-])([O-])[O-] [vanadate]
[3]; in vivo
  Inhibition/n: 0/5

## O=C(O)c1cc(NCc2cc(O)ccc2O)ccc1O [lavendustine-c]
[3]; PCL paste (3 mg), 10%
  Inhibition/n: 0/14
[3]; PCL paste (3 mg), 20%
  Inhibition/n: 0/10

## baccatin
[3]; methylcellulose (5 ul), 5 ug
  Inhibition/n: 4/7
[3]; paste (2 mg), 2 ug
  Inhibition/n: 2/3

## CC(O)CC(C)(C)O (stereo not shown) [hexylene glycol, 2-methyl-2,4-pentanediol]
Collagenase (MMP-1) mRNA
  prevented IL-1-induced collagenase expression at concentrations as low as: 100 nM
Aggrecan mRNA
  expression of aggrecan: did not affect the expression of aggrecan

## CCc1occc(=O)c1[O-].CCc1occc(=O)c1[O-].[O-2].[V+4] [BEOV]
[3]; PCL paste (3 mg), 10%
  Inhibition/n: too toxic

## C/C(=C\c1csc(C)n1)[C@@H]1C[C@@H]2O[C@]2(C)CCC[C@H](C)[C@H](O)[C@@H](C)C(=O)C(C)(C)[C@@H](O)CC(=O)O1 [epothilone B]
Collagenase (MMP-1) mRNA
  prevented IL-1-induced collagenase expression at concentrations as low as: 100 nM
Aggrecan mRNA
  expression of aggrecan: did not affect the expression of aggrecan
synoviocytes
  IC50: ~45 nM

## ethylene glycol bis-(succinimidylsuccinate)
Collagenase (MMP-1) mRNA
  prevented IL-1-induced collagenase expression at concentrations as low as: 100 nM
Aggrecan mRNA
  expression of aggrecan: did not affect the expression of aggrecan

## N#CC1=C(N)Oc2c(ccc3ccccc23)C1c1cccnc1 (stereo not shown) [LY290181, 2-amino-4-(3-pyridyl)-4H-naphtho(1,2-b)pyran-3-cardonitrile]
Collagenase (MMP-1) mRNA
  prevented IL-1-induced collagenase expression at concentrations as low as: 100 nM
[3]; PCL paste (3 mg), 1%
  Inhibition/n: did not induce an anti-angiogenesis response
[3]; PCL paste (3 mg), 5%
  Inhibition/n: ⅓
Aggrecan mRNA
  expression of aggrecan: did not affect the expression of aggrecan
Neutrophils [4]
  superoxide anion production: decrease in the amount of superoxide generated
synoviocytes
  IC50: < 5 nM
Neutrophils [5]
  lysozyme release: decreased both lysozyme and myeloperoxidase release
  myeloperoxidase release: decreased both lysozyme and myeloperoxidase release
Neutrophils [2]; 0.5 to 50 μM
  inhibition of plasma opsonized zymosan-induced neutrophil chemiluminescence: strong inhibition

## O=S(=O)([O-])[O-].[O]=[V+2] [vanadyl sulphate]
[3]; in vivo
  Inhibition/n: 0/3

## COC(=O)/C=C/c1cc(O)ccc1O [MDHC]
[3]; PCL paste (3 mg), 20%
  Inhibition/n: 0/8
